{"source": "patent US10765764B2", "about": "“Probes for imaging huntingtin protein” (CHDI Foundation, Inc., priority 2015, dated 2020)", "key": {"[1]": {"target": "T1, Aβ aggregates (Homo sapiens, UniProt P05067)", "T1 construct": "from tissue; host or cells: brain sections of 12 month old heterozygous APP/PS1 mice", "T1 sequence (P05067 672-713 limits assumed)": "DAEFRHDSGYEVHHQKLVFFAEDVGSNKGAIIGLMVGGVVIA", "experiment": "Autoradiography binding to Aβ aggregates in APP/PS1 mouse brain sections", "conditions": "1 nM radioligand, 12-month old heterozygous APP/PS1 mouse brain, compared with wild-type littermate", "text": "Generation of tritiated compound 1, Method 1, for autoradiography studies was achieved by treating phenolic Compound 2 of Method 2 with tritiated methyl nosylate and a suitable base in N,N-dimethylformamide Purification by HPLC gave the tritiated compound in high radiochemical purity.\nBrains were extracted from 12 month old heterozygous APP/PS1 animals (J. Neurochemistry 2009, 108, 1177-1186) and quickly frozen on dry ice in small weigh boats, wrapped with tin foil and stored in zip-lock bags at −80° C. for sectioning. Using a Leica CM3050S cryostat, 20 μm thick sections were generated representing the hippocampus (Bregma −1.34/−3.80) and the cortex/striatum (Bregma 1.54/−0.94). […]\n10-[^3H]-methoxy-N-(pyridin-3-yl)-7-thia-2,5-diazatricyclo[6.4.0.0^2,6]dodeca-1(12),3,5,8,10-pentaene-4-carboxamide binding was determined in brain sections of a 12 month old APP/PS1 mouse and a WT littermate. […] Non-specific binding was determined for each radioligand in the presence of 1 μM of respective, cold ligand equivalent. […]\nQuantification and Analysis: Signal intensity (cpm/mm^2) was measured for each brain section using Beta Vision+software. Specific (displaceable) binding, expressed in cpm/mm^2, was defined by the difference between total and non-specific binding and calculated as follows: (Total non-specific)/Total×100%. […]"}, "[2]": {"test_system": "mHTT aggregates", "experiment": "Autoradiography of mHTT aggregates in R6/2 mouse brain", "type": "binding", "conditions": "0.5 nM, 10 week old R6/2 mouse brain, compared with wild-type littermate"}, "[3]": {"target": "T2, Q46 protein aggregates (Homo sapiens, UniProt P42858)", "T2 construct": "fused on or other part: An N-terminal GST tag, cleaved off with thrombin before the assay to trigger aggregation", "T2 sequence (P42858 with tags, fused parts or gaps with the stated changes, form open)": "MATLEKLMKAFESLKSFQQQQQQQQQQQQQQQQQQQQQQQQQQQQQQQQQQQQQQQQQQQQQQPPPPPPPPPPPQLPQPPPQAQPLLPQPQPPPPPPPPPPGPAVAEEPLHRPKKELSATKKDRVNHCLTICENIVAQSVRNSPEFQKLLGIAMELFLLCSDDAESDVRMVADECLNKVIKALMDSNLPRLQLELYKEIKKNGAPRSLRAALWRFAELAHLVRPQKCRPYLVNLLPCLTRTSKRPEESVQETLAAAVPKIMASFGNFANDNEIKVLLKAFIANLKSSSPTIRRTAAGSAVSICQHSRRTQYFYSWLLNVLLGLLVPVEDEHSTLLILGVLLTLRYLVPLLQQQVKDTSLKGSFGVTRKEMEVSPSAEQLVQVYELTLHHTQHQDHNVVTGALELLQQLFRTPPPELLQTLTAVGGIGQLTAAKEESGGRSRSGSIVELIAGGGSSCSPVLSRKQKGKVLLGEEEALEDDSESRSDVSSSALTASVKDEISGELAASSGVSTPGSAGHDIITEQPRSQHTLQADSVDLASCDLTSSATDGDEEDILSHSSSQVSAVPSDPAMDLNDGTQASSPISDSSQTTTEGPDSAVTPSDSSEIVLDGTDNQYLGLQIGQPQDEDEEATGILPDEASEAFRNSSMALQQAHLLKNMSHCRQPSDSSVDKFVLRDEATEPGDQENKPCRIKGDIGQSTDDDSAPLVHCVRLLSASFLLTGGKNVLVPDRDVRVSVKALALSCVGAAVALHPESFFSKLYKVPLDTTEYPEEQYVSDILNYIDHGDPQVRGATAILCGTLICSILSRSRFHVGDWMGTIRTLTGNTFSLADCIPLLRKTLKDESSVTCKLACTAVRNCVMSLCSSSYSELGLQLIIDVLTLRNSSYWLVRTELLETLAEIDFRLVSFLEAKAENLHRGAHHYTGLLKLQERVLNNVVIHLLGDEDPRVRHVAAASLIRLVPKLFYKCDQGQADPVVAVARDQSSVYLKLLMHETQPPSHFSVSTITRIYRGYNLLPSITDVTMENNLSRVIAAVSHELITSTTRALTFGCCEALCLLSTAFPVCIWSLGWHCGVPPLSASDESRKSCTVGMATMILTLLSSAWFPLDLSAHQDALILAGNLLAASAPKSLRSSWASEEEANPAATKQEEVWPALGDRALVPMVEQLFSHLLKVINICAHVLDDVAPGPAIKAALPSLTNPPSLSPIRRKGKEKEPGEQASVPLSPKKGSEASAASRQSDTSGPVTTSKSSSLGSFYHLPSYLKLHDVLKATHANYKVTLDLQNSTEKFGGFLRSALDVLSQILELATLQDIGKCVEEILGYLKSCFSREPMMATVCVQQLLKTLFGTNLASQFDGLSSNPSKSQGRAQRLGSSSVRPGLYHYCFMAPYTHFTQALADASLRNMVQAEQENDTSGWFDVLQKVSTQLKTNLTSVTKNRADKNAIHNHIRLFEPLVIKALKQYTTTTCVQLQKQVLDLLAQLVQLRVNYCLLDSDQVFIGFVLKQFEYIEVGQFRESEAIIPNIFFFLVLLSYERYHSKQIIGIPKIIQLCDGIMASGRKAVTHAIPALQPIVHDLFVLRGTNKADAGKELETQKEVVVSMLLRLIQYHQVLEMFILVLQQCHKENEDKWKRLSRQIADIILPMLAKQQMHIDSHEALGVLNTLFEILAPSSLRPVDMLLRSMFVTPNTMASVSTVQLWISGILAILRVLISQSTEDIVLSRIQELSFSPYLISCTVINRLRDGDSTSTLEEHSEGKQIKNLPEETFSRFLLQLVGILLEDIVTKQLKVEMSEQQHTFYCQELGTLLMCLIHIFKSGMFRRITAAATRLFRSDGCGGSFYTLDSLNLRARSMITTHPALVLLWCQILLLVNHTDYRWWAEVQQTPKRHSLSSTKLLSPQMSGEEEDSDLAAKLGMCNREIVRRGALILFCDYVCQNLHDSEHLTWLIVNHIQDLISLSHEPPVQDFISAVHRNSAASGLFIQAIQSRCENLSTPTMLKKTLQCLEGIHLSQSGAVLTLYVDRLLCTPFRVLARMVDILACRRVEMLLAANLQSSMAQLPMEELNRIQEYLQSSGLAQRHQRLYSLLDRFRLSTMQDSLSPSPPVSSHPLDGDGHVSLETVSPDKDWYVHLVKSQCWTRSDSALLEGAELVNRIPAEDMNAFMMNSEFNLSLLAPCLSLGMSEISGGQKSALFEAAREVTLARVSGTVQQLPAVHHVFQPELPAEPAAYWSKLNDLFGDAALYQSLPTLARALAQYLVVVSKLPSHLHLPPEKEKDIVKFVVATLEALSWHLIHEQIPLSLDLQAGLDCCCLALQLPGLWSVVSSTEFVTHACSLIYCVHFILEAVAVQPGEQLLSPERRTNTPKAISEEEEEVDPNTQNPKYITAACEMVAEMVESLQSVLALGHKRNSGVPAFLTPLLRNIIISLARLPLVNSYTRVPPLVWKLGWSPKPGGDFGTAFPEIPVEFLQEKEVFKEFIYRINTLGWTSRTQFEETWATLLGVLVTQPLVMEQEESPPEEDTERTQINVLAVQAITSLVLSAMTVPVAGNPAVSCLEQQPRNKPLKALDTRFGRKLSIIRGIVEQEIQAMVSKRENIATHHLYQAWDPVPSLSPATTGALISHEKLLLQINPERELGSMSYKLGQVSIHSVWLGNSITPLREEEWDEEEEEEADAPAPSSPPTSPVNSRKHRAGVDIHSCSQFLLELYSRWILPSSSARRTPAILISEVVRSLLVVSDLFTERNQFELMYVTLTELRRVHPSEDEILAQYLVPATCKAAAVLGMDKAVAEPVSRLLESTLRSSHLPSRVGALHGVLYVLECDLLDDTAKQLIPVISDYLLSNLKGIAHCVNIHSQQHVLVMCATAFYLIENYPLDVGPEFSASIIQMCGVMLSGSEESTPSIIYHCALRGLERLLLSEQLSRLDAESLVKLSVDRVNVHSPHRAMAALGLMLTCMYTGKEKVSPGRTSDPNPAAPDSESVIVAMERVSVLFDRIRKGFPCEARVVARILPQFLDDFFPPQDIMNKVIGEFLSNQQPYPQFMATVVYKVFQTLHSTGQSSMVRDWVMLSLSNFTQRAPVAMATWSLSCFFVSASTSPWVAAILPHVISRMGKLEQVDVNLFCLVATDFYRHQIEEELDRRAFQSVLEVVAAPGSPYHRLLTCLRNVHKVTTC", "experiment": "Q46 Radioligand Binding Assay (RBA), displacement of [^3H3]MK-3328", "conditions": "10 nM [^3H3]MK-3328, 5 μM Q46 protein aggregates", "how_it_was_run": "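Aggregates were formed by thrombin cleavage of GST-Q46 for 16 h at 37° C. and pelleted. Aggregates (5 μM monomer equivalent) were preincubated 20 min with compound (1 μM–30 pM), then given 10 nM [3H]MK-3328 for 60 min at 37° C. in 150 mM NaCl, 50 mM Tris pH 8.0. Filter-bound counts were normalised to 3 μM unlabelled MK-3328 and fitted to a four-parameter IC50.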"}, "[4]": {"test_system": "NFT in sections of AD brain tissue", "conditions": "in vitro autoradiography and fluorescent staining; cited from earlier work"}, "[5]": {"test_system": "recombinant tau and amyloid β1-42 (Aβ1-42) aggregates", "conditions": "recombinant tau and Aβ1-42 aggregates; cited from earlier work"}}, "data": [{"compound": "[3H]C([3H])([3H])Oc1ccc2c(c1)sc1nc(C(=O)Nc3cccnc3)cn12", "note": "[10-[^3H]-methoxy-N-(pyridin-3-yl)-7-thia-2,5-diazatricyclo[6.4.0.0^2,6]dodeca-1(12),3,5,8,10-pentaene-4-carboxamide]", "values": [{"measurement": "visibility of Aβ aggregates in brain sections", "setting": "[1]", "value": "Aβ aggregates are visible"}]}, {"compound": "COc1ccc2c(c1)sc1nc(C(=O)Nc3ccc(=O)n(C)n3)cn12", "note": "[10-methoxy-N-(1-methyl-6-oxo-1,6-dihydropyridazin-3-yl)-7-thia-2,5-diazatricyclo[6.4.0.0^2,6]dodeca-1(12),3,5,8,10-pentaene-4-carboxamide]", "values": [{"measurement": "visibility of mHTT aggregates in brain sections", "setting": "[2]", "value": "mHTT aggregates are visible"}, {"measurement": "IC50", "setting": "[3]", "value": "< 0.1", "unit": "µM"}]}, {"compound": "CN(C)c1ccc(/C=C/c2nc3ccc(I)cc3[nH]2)cc1", "note": "[SBIM-3, 4-[(E)-2-(6-iodo-1H-benzimidazol-2-yl)ethenyl]-N,N-dimethylaniline]", "values": [{"measurement": "binding to NFT in sections of AD brain tissue", "setting": "[4]", "value": "bound NFT"}, {"measurement": "ratio of Kd values (affinity for tau aggregates vs Aβ1-42 aggregates)", "setting": "[5]", "value": 2.73}]}]}
